ChEMBL document CHEMBL4251622, “Design, synthesis, and biological evaluation of polo-like kinase 1/eukaryotic elongation factor 2 kinase (PLK1/EEF2K) dual inhibitors for regulating breast cancer cells apoptosis and autophagy” (Eur J Med Chem, 2018)

Tests used:
[1] = biological target: Cyclin-dependent kinase 2 (Homo sapiens) (UniProt P24941); assay: Inhibition of wild-type human full length CDK2 (M1 to L298 residues) expressed in bacterial expression system assessed as residual activity at 1 uM by Kinomescan method relative to control
[2] = biological target: Fibroblast growth factor receptor 1 (Homo sapiens) (UniProt P11362); assay: Inhibition of wild-type human partial length FGFR1 (P357 to V669 residues) expressed in bacterial expression system assessed as residual activity at 1 uM by Kinomescan method relative to control
[3] = biological target: Tyrosine-protein kinase receptor UFO (Homo sapiens) (UniProt P30530); assay: Inhibition of wild-type human partial length AXL (R497 to Y821 residues) expressed in bacterial expression system assessed as residual activity at 1 uM by Kinomescan method relative to control
[4] = biological target: Macrophage colony-stimulating factor 1 receptor (Homo sapiens) (UniProt P07333); assay: Inhibition of wild-type human partial length CSF1R (I564 to S939 residues) expressed in bacterial expression system assessed as residual activity at 1 uM by Kinomescan method relative to control
[5] = biological target: Casein kinase I isoform gamma-2 (Homo sapiens) (UniProt P78368); assay: Inhibition of wild-type human full length CSNK1G2 (M1 to K415 residues) expressed in bacterial expression system assessed as residual activity at 1 uM by Kinomescan method relative to control
[6] = biological target: Serine/threonine-protein kinase TNNI3K (Homo sapiens) (UniProt Q59H18); assay: Inhibition of wild-type human full length TNNI3K (M1 to S835 residues) expressed in bacterial expression system assessed as residual activity at 1 uM by Kinomescan method relative to control
[7] = biological target: Testis-specific serine/threonine-protein kinase 1 (Homo sapiens) (UniProt Q9BXA7); assay: Inhibition of wild-type human full length TSSK1B (M1 to Q367 residues) expressed in bacterial expression system assessed as residual activity at 1 uM by Kinomescan method relative to control
[8] = biological target: Mitogen-activated protein kinase kinase kinase 7 (Homo sapiens) (UniProt O43318); assay: Inhibition of wild-type human partial length TAK1 (M1 to Q303 residues) expressed in mammalian expression system assessed as residual activity at 1 uM by Kinomescan method relative to control
[9] = biological target: Aurora kinase A (Homo sapiens) (UniProt O14965); assay: Inhibition of wild-type human partial length AURKA (E122 to K401 residues) expressed in mammalian expression system assessed as residual activity at 1 uM by Kinomescan method relative to control
[10] = biological target: Non-receptor tyrosine-protein kinase TYK2 (Homo sapiens) (UniProt P29597); assay: Inhibition of wild-type human partial length TYK2 JH1 catalytic domain (V877 to C1187 residues) expressed in mammalian expression system assessed as residual activity at 1 uM by Kinomescan method relative to control
[11] = biological target: Serine/threonine-protein kinase ULK1 (Homo sapiens) (UniProt O75385); assay: Inhibition of wild-type human partial length ULK1 (M1 to T309 residues) expressed in mammalian expression system assessed as residual activity at 1 uM by Kinomescan method relative to control
[12] = biological target: TGF-beta receptor type-1 (Homo sapiens) (UniProt P36897); assay: Inhibition of wild-type human partial length TGFBR1 (D179 to M503 residues) expressed in bacterial expression system assessed as residual activity at 1 uM by Kinomescan method relative to control
[13] = biological target: Serine/threonine-protein kinase B-raf (Homo sapiens) (UniProt P15056); assay: Inhibition of wild-type human partial length BRAF (S429 to E741 residues) expressed in mammalian expression system assessed as residual activity at 1 uM by Kinomescan method relative to control
Serine/threonine-protein kinase B-raf (Homo sapiens), sequence (P15056 whole entry, the tested form may be a part): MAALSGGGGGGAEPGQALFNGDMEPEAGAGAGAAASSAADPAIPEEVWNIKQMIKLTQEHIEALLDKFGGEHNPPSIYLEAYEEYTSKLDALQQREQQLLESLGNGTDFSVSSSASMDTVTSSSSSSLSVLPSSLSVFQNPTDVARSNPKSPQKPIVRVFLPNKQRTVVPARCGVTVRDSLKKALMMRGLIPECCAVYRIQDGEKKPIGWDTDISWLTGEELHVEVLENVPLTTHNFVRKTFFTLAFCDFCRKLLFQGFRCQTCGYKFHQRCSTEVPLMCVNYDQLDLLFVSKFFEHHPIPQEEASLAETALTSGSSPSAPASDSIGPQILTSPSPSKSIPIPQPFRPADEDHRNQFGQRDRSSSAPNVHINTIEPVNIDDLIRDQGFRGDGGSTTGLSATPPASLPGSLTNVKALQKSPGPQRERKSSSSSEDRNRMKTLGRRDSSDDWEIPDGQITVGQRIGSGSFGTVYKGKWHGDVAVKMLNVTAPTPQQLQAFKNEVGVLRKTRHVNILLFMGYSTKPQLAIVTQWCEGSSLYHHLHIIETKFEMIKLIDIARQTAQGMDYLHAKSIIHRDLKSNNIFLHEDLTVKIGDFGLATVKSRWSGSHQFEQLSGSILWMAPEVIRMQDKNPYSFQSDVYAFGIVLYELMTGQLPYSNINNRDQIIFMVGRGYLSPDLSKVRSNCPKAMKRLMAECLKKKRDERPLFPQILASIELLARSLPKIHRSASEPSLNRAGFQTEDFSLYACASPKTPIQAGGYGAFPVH

Testis-specific serine/threonine-protein kinase 1 (Homo sapiens), sequence (Q9BXA7 whole entry, the tested form may be a part): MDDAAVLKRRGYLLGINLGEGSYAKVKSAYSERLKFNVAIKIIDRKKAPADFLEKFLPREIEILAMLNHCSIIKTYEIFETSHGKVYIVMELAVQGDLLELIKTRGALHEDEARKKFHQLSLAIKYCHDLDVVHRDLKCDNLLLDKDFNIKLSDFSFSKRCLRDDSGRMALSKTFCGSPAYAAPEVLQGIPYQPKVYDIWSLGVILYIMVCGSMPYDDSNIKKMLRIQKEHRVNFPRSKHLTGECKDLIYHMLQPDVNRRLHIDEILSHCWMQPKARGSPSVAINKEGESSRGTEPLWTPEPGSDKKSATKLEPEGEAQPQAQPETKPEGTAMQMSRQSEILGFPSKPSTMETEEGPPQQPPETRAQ
Serine/threonine-protein kinase TNNI3K (Homo sapiens), sequence (Q59H18 whole entry, the tested form may be a part): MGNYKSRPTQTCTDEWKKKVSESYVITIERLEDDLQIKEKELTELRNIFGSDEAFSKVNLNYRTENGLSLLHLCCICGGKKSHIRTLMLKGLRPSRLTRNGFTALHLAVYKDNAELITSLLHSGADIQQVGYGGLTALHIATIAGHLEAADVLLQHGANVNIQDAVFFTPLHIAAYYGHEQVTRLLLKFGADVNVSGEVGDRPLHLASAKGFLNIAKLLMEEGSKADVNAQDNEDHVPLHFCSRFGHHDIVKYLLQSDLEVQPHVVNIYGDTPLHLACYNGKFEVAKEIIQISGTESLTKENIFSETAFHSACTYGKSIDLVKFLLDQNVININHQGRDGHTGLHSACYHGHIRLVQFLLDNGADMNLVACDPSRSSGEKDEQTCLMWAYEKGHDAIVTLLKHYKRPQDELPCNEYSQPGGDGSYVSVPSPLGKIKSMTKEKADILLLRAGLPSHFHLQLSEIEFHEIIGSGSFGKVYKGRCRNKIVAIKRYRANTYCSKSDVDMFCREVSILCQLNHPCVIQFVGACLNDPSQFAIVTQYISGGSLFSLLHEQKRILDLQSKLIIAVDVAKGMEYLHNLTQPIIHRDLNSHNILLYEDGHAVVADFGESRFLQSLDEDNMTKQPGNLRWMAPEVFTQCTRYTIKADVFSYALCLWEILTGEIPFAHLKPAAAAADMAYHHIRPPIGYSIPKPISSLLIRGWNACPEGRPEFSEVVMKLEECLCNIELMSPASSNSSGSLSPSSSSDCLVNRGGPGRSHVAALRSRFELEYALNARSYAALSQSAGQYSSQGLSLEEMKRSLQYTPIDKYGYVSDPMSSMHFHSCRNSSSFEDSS
Fibroblast growth factor receptor 1 (Homo sapiens), sequence (P11362 22-822 limits assumed): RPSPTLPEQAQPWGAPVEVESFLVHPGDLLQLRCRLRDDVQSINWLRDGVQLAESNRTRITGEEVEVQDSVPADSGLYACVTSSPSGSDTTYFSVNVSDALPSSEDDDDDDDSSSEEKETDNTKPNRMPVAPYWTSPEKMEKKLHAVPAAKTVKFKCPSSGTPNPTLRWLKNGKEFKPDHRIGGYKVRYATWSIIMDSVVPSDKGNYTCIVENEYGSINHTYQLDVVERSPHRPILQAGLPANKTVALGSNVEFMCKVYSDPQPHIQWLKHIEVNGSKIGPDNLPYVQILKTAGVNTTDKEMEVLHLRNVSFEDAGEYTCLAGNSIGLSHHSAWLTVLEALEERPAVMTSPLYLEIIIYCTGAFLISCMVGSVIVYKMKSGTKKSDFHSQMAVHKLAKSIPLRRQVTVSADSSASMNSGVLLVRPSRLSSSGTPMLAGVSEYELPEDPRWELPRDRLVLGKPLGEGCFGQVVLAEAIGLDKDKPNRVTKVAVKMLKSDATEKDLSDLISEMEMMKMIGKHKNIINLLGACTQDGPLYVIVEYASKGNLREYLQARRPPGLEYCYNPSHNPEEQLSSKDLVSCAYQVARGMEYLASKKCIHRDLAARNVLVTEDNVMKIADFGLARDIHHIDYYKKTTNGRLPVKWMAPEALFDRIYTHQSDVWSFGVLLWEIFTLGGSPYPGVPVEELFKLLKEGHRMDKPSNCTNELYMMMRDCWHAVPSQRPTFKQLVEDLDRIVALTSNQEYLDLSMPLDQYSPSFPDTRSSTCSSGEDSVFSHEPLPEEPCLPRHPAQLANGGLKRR
Serine/threonine-protein kinase ULK1 (Homo sapiens), sequence (O75385 whole entry, the tested form may be a part): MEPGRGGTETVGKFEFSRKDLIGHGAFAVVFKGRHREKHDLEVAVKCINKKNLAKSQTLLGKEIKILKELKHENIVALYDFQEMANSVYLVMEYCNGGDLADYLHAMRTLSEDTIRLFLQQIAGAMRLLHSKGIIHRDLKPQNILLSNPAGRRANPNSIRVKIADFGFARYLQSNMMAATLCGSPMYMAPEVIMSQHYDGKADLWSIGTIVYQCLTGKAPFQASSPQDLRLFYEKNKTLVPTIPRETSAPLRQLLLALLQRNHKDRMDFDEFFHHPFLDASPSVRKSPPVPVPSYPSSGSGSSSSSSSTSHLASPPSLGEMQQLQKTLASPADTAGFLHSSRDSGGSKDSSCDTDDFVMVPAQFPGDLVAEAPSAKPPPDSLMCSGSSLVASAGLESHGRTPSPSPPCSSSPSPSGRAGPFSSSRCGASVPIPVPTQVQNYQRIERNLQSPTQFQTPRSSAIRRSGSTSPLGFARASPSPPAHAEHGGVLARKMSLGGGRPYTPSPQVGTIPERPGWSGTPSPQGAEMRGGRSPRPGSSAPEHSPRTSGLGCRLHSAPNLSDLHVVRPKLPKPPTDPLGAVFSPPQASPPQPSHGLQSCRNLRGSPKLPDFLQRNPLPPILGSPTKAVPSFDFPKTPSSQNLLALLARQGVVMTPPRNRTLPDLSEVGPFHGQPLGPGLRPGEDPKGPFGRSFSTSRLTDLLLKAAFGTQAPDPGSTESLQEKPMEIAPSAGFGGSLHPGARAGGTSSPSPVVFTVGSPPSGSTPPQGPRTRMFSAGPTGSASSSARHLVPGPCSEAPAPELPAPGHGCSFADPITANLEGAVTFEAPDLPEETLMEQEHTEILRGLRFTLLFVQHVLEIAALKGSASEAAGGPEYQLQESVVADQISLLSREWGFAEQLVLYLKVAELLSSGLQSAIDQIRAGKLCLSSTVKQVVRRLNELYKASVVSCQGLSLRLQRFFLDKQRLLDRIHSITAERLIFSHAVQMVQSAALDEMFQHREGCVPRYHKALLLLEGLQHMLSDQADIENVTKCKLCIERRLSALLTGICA
Aurora kinase A (Homo sapiens), sequence (O14965 whole entry, the tested form may be a part): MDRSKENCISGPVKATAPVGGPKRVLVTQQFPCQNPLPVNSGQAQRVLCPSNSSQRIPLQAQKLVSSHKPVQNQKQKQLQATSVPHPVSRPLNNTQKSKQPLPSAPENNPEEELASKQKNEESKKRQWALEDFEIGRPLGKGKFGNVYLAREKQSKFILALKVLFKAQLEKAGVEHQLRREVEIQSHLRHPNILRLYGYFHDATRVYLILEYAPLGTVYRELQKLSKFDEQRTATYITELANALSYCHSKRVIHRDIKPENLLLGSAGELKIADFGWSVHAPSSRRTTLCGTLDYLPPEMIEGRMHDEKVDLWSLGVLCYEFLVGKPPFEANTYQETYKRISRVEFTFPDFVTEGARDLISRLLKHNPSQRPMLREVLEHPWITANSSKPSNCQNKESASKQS
Casein kinase I isoform gamma-2 (Homo sapiens), sequence (P78368 whole entry, looked up, the tested form may be a part, canonical isoform): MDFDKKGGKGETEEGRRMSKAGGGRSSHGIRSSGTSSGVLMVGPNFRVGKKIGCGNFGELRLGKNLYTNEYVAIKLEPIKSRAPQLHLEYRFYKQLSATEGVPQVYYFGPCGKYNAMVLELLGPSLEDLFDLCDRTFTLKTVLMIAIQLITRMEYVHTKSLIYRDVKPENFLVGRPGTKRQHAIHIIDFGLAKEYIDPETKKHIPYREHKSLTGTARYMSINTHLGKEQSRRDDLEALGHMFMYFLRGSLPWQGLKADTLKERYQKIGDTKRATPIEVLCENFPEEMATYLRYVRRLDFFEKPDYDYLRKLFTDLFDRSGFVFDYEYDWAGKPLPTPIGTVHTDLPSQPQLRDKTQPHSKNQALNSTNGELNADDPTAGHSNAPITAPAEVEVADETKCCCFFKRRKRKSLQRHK

`CCNc1cc(-c2ccc(NC(=O)Nc3cccc(Cl)c3)cc2C(F)(F)F)ccn1` gave an Activity [1] of 98%, an Activity [2] of 91% and an Activity [3] of 99%. For the same compound, the Activity [4] was 85%, the Activity [5] was 90% and the Activity [6] was 70%. For the same compound, the Activity [7] was 64%, the Activity [8] was 76% and the Activity [9] was 100%. It also gave an Activity [10] of 65%, an Activity [11] of 62% and an Activity [12] of 86%. It also gave an Activity [13] of 93%.
